The target in experiment [1] is T1, Mdm2-luciferase fusion protein (Homo sapiens, UniProt Q00987).
T1 construct: Using full-length Mdm2 allowed for the presence of all domains of Mdm2; expressed in transfected cells
As to the kind of experiment: cell-based Mdm2 auto-ubiquitination luminescence assay, Mdm2-luciferase cell line. The note with it: for luminescence of the Mdm2-luciferase cell line: 384-well format; for EC50: 2 hours treatment. How it is done:
(§1) Cells were plated in 384-well format and treated with MG132 (2 hours) or cycloheximide (30 minutes). Steadylite luminescence buffer (PerkinElmer) was added and the relative luminescence levels determined on a Victor3 Plate Reader. Each graph represents the median of 5 replicates normalized to a no treatment control, and one standard deviation is shown. […] The graphs and EC50 values were determined using Graphpad PRISM®. […] U2OS, RKO, and HCT116 cells (p53 wild-type) were incubated with 5 μg/ml (14 μM) of MEL23, 5 μg/ml (15 μM) of MEL24, or 10 μM of MG132 for 6 hours. Cells were lysed and analyzed by Western blotting using anti-Mdm2, anti-p53, and anti-eIF4E antibodies. NT indicates a no treatment control. […] MCF7 cells (p53 wild-type) were incubated with 30 μg/ml (51 μM) etoposide alone or in combination with 50 μM AlIn or 5 μg/ml (14 μM) MEL23, or 5 μg/ml (15 μM) MEL24 for 16 hours. Cells were lysed and analyzed by Western blotting using anti-MDMX and anti-actin antibodies.
The Mdm2-luciferase cell line was seeded at 7,500 cells per well, in 384-well white plates (PerkinElmer, Waltham, Mass., Cat. No. 6007688), in 27 μl of media (DMEM with FBS and P/S). Assay plates with cells were incubated at 37° C. overnight to allow cells to adhere. After 24 hours, 2 μl from the ‘mother’ plate (4 mg/ml) was transferred to a ‘daughter plate’ containing 148 μl media in order to dilute the compound 1:75. Next, 3 μl from each well of the ‘daughter plates’ was added to triplicate assay plates for a final concentration of 5.33 μg/ml. Assay plates were incubated at 37° C. for 2 hours. Then the cells were lysed with the addition of 30 μl of luminescence buffer (PerkinElmer, Cat. No. 6016989), and the plates were incubated at room temperature for 30 minutes before being analyzed on a Victor3 Plate Reader (PerkinElmer) for luminescence. […] All repurchased compounds were tested in a 2-fold dilution series via the same protocol as the primary screening. All transfers were conducted using a BioMek (Beckman Coulter, Fullerton, Calif.). […] This was determined by comparing the negative control, no treatment, to the positive control, 10 μM MG132.
To identify Mdm2 E3 ligase inhibitors, a high-throughput cellular assay to measure changes in Mdm2 auto-ubiquitination and degradation was designed. This assay took advantage of the fact that Mdm2 can regulate itself in cells through ubiquitination and degradation (8). Two fusion proteins were constructed for the assay: (a) a wild-type Mdm2-luciferase fusion protein, which can auto-ubiquitinate and thereby target itself for degradation; and (b) a mutant Mdm2(C464A)-luciferase fusion protein. Both fusion proteins were constructed with luciferase N-terminal to Mdm2. The C464A mutation disrupts a metal binding site in the RING domain, thereby preventing Mdm2 E3 ligase activity (8). Small molecules that increase the luminescence of the Mdm2-luciferase fusion protein without increasing the luminescence of the Mdm2(C464A)-luciferase fusion protein are likely inhibiting Mdm2 E3 ligase activity or the proteasomal degradation of Mdm2. Alternatively, small molecules that increase the luminescence of both fusion proteins are likely affecting transcription, translation, or have a general cellular impact that is not dependent on the E3 ligase activity of Mdm2 or proteasomal degradation.

Experiment [2] deals with MdmX. The experiment can be described thus: etoposide-induced MdmX degradation in MCF7 cells (Western blot). The class given is cell-based, human. The note with it: etoposide 30 μg/ml, 16 hours. How it is done:
as §1
Cells were seeded and treated with the indicated compound(s). Cells were lysed after each time point in a buffer of 50 mM TrisHCl pH 7.5, 200 mM NaCl, 0.5% NP-40, and 1 complete mini EDTA-free protease inhibitor cocktail tablet per 10 mL of buffer (Roche, Cat. No. 8360170). Protein content was quantified using a Biorad protein assay reagent (Bio-Rad Laboratories, Hercules, Calif., Cat. No. 500-0006). SDS sample buffer was added to the samples, and the mixture was boiled for 5 minutes. Equal amounts of protein were resolved on a 1D SDS-PAGE gel. Following separation proteins were transferred to nitrocellulose membrane, blocked with 5% milk, and then incubated with primary antibody overnight at 4° C. The membrane was incubated with secondary-HRP antibody for 45 minutes at room temperature and developed with SuperSignal West Pico Substrate (Pierce, Rockford, Ill., Cat. No. 34080).
On the technique in general: Immunoblotting shows a protein as a band on a membrane.

The target of experiment [3] is T2, Roc1/Cul1 E3 RING domain ligase (Homo sapiens, UniProt P62877+Q13616).
T2 construct: gift from Zhen-Qiang Pan, Mount Sinai School of Medicine
T2 sequence (P62877 whole entry, the tested form may be a part): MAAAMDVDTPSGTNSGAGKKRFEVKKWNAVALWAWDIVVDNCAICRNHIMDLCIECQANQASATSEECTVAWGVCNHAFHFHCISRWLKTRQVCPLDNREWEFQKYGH
T2 sequence (Q13616 whole entry, the tested form may be a part): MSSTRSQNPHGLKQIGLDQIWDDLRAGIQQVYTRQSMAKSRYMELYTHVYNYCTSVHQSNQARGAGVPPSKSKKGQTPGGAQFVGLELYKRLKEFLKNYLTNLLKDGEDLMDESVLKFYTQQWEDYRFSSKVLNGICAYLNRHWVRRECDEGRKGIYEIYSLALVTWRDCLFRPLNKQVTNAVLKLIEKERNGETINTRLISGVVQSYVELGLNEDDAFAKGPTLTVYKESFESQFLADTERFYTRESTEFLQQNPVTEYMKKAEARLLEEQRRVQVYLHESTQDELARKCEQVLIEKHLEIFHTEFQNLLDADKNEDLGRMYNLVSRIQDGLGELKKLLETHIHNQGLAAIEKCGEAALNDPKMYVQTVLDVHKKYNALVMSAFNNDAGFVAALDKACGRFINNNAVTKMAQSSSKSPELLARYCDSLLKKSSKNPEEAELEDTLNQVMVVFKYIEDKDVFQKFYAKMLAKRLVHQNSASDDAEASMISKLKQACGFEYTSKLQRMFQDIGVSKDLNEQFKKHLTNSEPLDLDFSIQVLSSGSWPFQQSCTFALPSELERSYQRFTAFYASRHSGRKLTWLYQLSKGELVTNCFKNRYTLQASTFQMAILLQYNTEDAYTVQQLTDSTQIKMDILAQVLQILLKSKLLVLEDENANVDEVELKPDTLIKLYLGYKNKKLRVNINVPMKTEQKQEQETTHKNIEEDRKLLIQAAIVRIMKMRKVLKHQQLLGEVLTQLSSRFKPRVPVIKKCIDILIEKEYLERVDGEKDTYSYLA
As to the kind of experiment: in vitro Roc1/Cul1 E3 ligase ubiquitination assay. Type of experiment: biochemical. How it is done: These assays were performed with 100 ng of full-length Flag-Mdm2 or 200 ng of Flag-Mdm2/HA-MdmX complexes (100 ng of each protein as each are present in a 1:1 ratio, when purified), ^32P-labeled ubiquitin, UbCH5c, and E1. Following a 30-minute incubation at 37° C., reactions were terminated and resolved on a SDS-PAGE gel followed by autoradiography. PC indicates positive control, and NC indicates negative control with UbCH5C eliminated from the reaction. The gels were quantified by phosphoimaging using ImageQuant software (GE Healthcare Bio-Sciences Corp., Piscataway, N.J.). […] Reactions were performed as in FIG. 11A except 500 ng GST-Mdm2 (residues 400-491) and GST-MdmX (residues 400-490) were used for ubiquitin polymerization. […] Reactions were performed as in FIG. 11A except with 3 μg of the Roc1/Cul1 ligase complex. Ubiquitination activity of the complex was tested in the presence of increasing concentrations of MEL23 and MEL24.
Ubiquitination assays in the presence of increasing concentrations of MEL compounds were performed with 1.5 μg of the Roc1-Cul1 ligase complex, ^32P-labeled ubiquitin, UbCH5c, and E1. Following 30 min incubation at 37° C., reactions were terminated and resolved on a SDS-PAGE gel (FIG. 31A) followed by autoradiography and quantitation (FIG. 31B). […]

Values joined by “and” are separate entries in the source; they are usually repeats but may differ in a detail not shown here. Equal entries are not always repeated. Where two headings read alike, the source gives them in different places.

As a reminder, the EC50 is the concentration that produces a half-maximal response.

T1 sequence (Q00987 whole entry, the tested form may be a part): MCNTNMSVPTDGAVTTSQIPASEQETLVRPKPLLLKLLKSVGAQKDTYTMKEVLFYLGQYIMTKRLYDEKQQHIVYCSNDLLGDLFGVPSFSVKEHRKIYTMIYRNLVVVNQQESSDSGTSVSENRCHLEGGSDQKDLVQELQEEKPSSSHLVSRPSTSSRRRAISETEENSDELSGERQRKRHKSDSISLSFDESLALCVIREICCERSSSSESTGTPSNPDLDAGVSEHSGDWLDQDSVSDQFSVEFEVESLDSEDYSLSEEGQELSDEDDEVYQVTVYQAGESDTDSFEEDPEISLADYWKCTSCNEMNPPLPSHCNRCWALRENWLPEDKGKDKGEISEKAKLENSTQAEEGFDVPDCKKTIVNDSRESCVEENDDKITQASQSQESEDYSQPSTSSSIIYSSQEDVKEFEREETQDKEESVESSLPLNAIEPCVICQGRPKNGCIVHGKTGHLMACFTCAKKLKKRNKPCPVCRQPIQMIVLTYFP

Take `CCCCn1c(=O)[nH]c(O)c(C2NCCc3c2[nH]c2ccccc32)c1=O` (centres unmarked) [MEL23]: the “luminescence of the Mdm2-luciferase cell line” value in experiment [1] is “increased the luminescence of the Mdm2-luciferase cell line to a similar level as with MG132 treatment”. Moreover, the EC50 in experiment [1] (EC50, Mdm2-luciferase cell line) is 7.62 µM and 7.5 µM. Moreover, the “etoposide-induced MdmX degradation” value in experiment [2] was “degradation could be prevented”. For the same compound, the “Roc1/Cul1 E3 ligase activity in vitro” value in experiment [3] is “no inhibition”.

Regarding `Cn1c(O)c(C2NCCc3c2[nH]c2ccccc32)c(=O)n(C)c1=O` (centres unmarked) [MEL24], in experiment [1], the “luminescence of the Mdm2-luciferase cell line” value was “increased the luminescence of the Mdm2-luciferase cell line to a similar level as with MG132 treatment”. Moreover, the EC50 in experiment [1] (Mdm2-luciferase cell line, read-out: EC50 (converted)) is 9.19 µM and 9.2 µM. Further, the “etoposide-induced MdmX degradation” value in experiment [2] was “degradation could be prevented”. Besides, the “Roc1/Cul1 E3 ligase activity in vitro” value in experiment [3] is listed as “no inhibition”.

Values taken from patent US20120135089A1, “E3 LIGASE INHIBITORS” (priority 2009, published 2012).
